Assay results reported in article PMC10721329, “Quisinostat is a brain-penetrant radiosensitizer in glioblastoma” (JCI Insight, 2023).
pIC50: −log10 of the molar value. “And” between values parts separate entries of the source, which are not always exact repeats. Equal entries are not always repeated.

Legend:
[1] = test system: GB187 patient-derived GSC line; assay: CellTiter-Glo dose-response cell viability assay; assay type: cell-based, human
Description: QST (JNJ-26481585) is a second-generation hydroxamic acid harboring remarkable selectivity toward class I HDACs, with a biochemical IC50 of 0.1 nM for HDAC1 ([13]). […] To determine the cytotoxic effects of QST, we performed a dose-titration cell viability assay in 7 patient-derived GSC lines (BT145, GB187, GB239, GB282, GB71, GB82, and GB126) and 1 long-term serum-grown human GBM cell line (U87). Because GBMs display a high degree of intratumoral heterogeneity, we used GSCs derived from both primary and recurrent GBMs that harbored distinct genetic mutations or aberrations, growth rates, MGMT promoter methylation status, and gene expression profiles (Supplemental Figure 1; supplemental material available online with this article; https://doi.org/10.1172/jci.insight.167081DS1). Cell lines were treated with various concentrations of QST (10–1000 nM), and cell viability was measured 3–5 days later (Figure 1, A and B). […] Treatment with QST at the IC50 induced significant inhibition of proliferation (Ki67) and an increase in programmed cell death (cleaved caspase 3) in 2 different GSC lines (Figure 1, C and D). Additional analyses confirmed that QST induces apoptosis after short-term treatment through increased staining of the apoptotic marker annexin V (Figure 2A) and cell cycle arrest (in G2- or S-phase; Figure 2B and Supplemental Figure 1B).
GSCs were seeded in laminin-coated tissue culture–treated 96-well plates (clear bottom, white plate; Corning) at a density of 1000–5000 cells per well (cell line dependent) in GSC media. U87-MG were seeded using their normal growth conditions without laminin (10% bovine calf serum in DMEM). All cells were incubated at 37°C and allowed to adhere overnight. The next day, cells were treated with incremental concentrations of QST (Selleckchem; 0, 10, 25, 50, 100, 250, 500, and 1000 nM) diluted in media. Cells treated without QST were treated with DMSO diluted in media. Following treatment with QST, cells were grown for 3 to 5 days (cell line dependent), and cell viability was measured and quantified. All cell viability measurements were performed using the CellTiter-Glo luminescent cell viability assay (Promega) following the manufacturer’s instructions. For the sulforhodamine B colorimetric assay for cytotoxicity, the protocol was performed as described elsewhere ([33]). All cell viability results represent the mean of at least 3 biological replicates, each containing 3 technical replicates.

orthotopic GB126 tumors = assay: Bioluminescence imaging of tumor burden, orthotopic GB126 PDX; assay type: in vivo, athymic nude mice; settings: individual mice
Description: We additionally questioned whether QST, either alone or in combination with IR, could extend the survival of tumor-bearing mice. In this study, mice received the same treatments described above, but after completion of the 1-week IR regimen, mice continued to receive QST at 10 mg/kg or vehicle solution on MWF until study completion, as determined by large tumor burden and onset of neurological symptoms (Figure 8A). […] Although QST monotherapy slowed tumor growth, median survival for the QST-treated mice was only 4 days longer than for the vehicle-treated mice (P < 0.01), and IR alone increased median survival by 17 days (P < 0.001; Figure 8D). However, combining QST with IR led to a significant increase in median survival (37 days, P < 0.001) compared with the vehicle (Figure 8D). […]
Rad225XL irradiator (Precision X -Ray). […]
Live Bioluminescence Imaging
Two weeks after implantation, mice were examined for tumor growth by monitoring bioluminescence every 7 days using the IVIS Xenogen Spectrum platform. D -Luciferin Potassium Salt (Gold Biotechnology) was dissolved in PBS at a final concentration of 15 mg/mL. All mice were weighed each week and administered D -Luciferin via an intraperitoneal injection (10 μl/g). Fifteen minutes after injection, the mice were sedated using gaseous isoflurane (Piramal) and placed inside an IVIS Spectrum in vivo imaging system (Perkin Elmer) […]
for bioluminescence imaging. The total flux (photons/second) within the region of interest was calculated using the Living Image software 4.5 (Perkin Elmer).
Preparation of QST for In Vivo Use
For in vivo preparation, QST was dissolved in 50% polyethylene glycol (PEG) 300, 50% sterile water solution for 10 mg/kg dosing. The suspension was then sonicated for 10 minutes to allow the drug to completely dissolve. Finally, the pH of both the drug and the vehicle solutions was adjusted to 7.4 before intraperitoneal dosing. […]
In Vivo Irradiation Studies
Intracranial or flank tumor–bearing nude mice were sedated with gaseous isoflurane before
IR. On the first week of treatment, 2 hours after treatment with QST or vehicle, the mice were […]

Structure (SMILES): Cn1cc(CNCC2CCN(c3ncc(C(=O)NO)cn3)CC2)c2ccccc21 [QST, quisinostat]
- Cell viability (fraction of DMSO control) ([1]; GB187x, QST 10 nM (log[nM] 1)): 0.9255 and 0.9282
- Cell viability (fraction of DMSO control) ([1]; GB187x, QST 25 nM (log[nM] 1.39794)): 0.8647 and 0.8308
- Cell viability (fraction of DMSO control) ([1]; GB187x, QST 50 nM (log[nM] 1.69897)): 0.7684 and 0.7163
- Cell viability (fraction of DMSO control) ([1]; GB187x, QST 100 nM (log[nM] 2)): 0.6258 and 0.5995
- Cell viability (fraction of DMSO control) ([1]; GB187x, QST 250 nM (log[nM] 2.39794)): 0.5316 and 0.4983
- Cell viability (fraction of DMSO control) ([1]; GB187x, QST 500 nM (log[nM] 2.69897)): 0.4749 and 0.464
- Cell viability (fraction of DMSO control) ([1]; GB187x, QST 1000 nM (log[nM] 3)): 0.4026 and 0.4385
- viability at 0.01 µM ([1]; Homo sapiens, GB187x, QST 10 nM (log[nM] 1), read-out: Cell viability (fraction of DMSO control)): 88.5%
- viability at 0.025 µM ([1]; Homo sapiens, GB187x, QST 25 nM (log[nM] 1.39794), read-out: Cell viability (fraction of DMSO control)): 79.9%
- viability at 0.05 µM ([1]; Homo sapiens, GB187x, QST 50 nM (log[nM] 1.69897), read-out: Cell viability (fraction of DMSO control)): 70.8%
- viability at 0.1 µM ([1]; Homo sapiens, GB187x, QST 100 nM (log[nM] 2), read-out: Cell viability (fraction of DMSO control)): 59%
- viability at 0.25 µM ([1]; Homo sapiens, GB187x, QST 250 nM (log[nM] 2.39794), read-out: Cell viability (fraction of DMSO control)): 53.2%
- viability at 0.5 µM ([1]; Homo sapiens, GB187x, QST 500 nM (log[nM] 2.69897), read-out: Cell viability (fraction of DMSO control)): 47.1%
- viability at 1 µM ([1]; Homo sapiens, GB187x, QST 1000 nM (log[nM] 3), read-out: Cell viability (fraction of DMSO control)): 43.9%
- pIC50 ([1]; Homo sapiens, GB187, 3-5 days): 7.00
- IVIS imaging, bioluminescence (orthotopic GB126 tumors; Qstat 10 mg/kg + IR 6 Gy, day 0 post Tx start (baseline)): 75600000 photons/seconds and 79700000 photons/seconds and 125000000 photons/seconds and 47900000 photons/seconds and 137000000 photons/seconds and 47600000 photons/seconds and 28100000 photons/seconds and 33000000 photons/seconds and 18800000 photons/seconds and 23200000 photons/seconds
- IVIS imaging, bioluminescence (orthotopic GB126 tumors; Qstat 10 mg/kg + IR 6 Gy, day 8 post Tx start): 37000000 photons/seconds and 56500000 photons/seconds and 14000000 photons/seconds and 16000000 photons/seconds and 118000000 photons/seconds and 67200000 photons/seconds and 5460000 photons/seconds and 2880000 photons/seconds and 542000 photons/seconds and 178000000 photons/seconds
- IVIS imaging, bioluminescence (orthotopic GB126 tumors; Qstat 10 mg/kg + IR 6 Gy, day 29 post Tx start): 111000000 photons/seconds and 75900000 photons/seconds and 60800000 photons/seconds and 55400000 photons/seconds and 150000000 photons/seconds and 22000000 photons/seconds and 8210000 photons/seconds and 10600000 photons/seconds and 10200000 photons/seconds and 15700000 photons/seconds
- IVIS imaging, bioluminescence (orthotopic GB126 tumors; Qstat 10 mg/kg + IR 6 Gy, day 36 post Tx start): 9000000 photons/seconds and 4380000 photons/seconds and 371000000 photons/seconds and 40800000 photons/seconds and 426000000 photons/seconds and 6690000 photons/seconds and 51000000 photons/seconds and 114000000 photons/seconds and 111000000 photons/seconds
- IVIS imaging, bioluminescence (orthotopic GB126 tumors; Qstat 10 mg/kg + IR 6 Gy, day 43 post Tx start): 943000000 photons/seconds and 1020000000 photons/seconds and 359000000 photons/seconds and 413000000 photons/seconds and 832000000 photons/seconds and 252000000 photons/seconds (2×) and 865000000 photons/seconds and 139000000 photons/seconds and 55200000 photons/seconds
- IVIS imaging, bioluminescence (orthotopic GB126 tumors; Qstat 10 mg/kg + IR 6 Gy, day 50 post Tx start): 1010000000 photons/seconds and 2140000000 photons/seconds and 260000000 photons/seconds and 1180000000 photons/seconds and 4090000000 photons/seconds and 2810000000 photons/seconds and 808000000 photons/seconds and 15100000 photons/seconds and 286000000 photons/seconds
- IVIS imaging, bioluminescence (orthotopic GB126 tumors; Qstat 10 mg/kg + IR 6 Gy, day 57 post Tx start): 6040000000 photons/seconds and 4070000000 photons/seconds and 1070000000 photons/seconds and 2530000000 photons/seconds and 1020000000 photons/seconds and 1870000000 photons/seconds and 1150000000 photons/seconds
- IVIS imaging, bioluminescence (orthotopic GB126 tumors; Qstat 10 mg/kg alone, day 0 post Tx start (baseline), PDX model): 86400000 photons/seconds and 33100000 photons/seconds and 140000000 photons/seconds and 26400000 photons/seconds and 105000000 photons/seconds and 45000000 photons/seconds and 52600000 photons/seconds and 53600000 photons/seconds and 60100000 photons/seconds and 13600000 photons/seconds
- IVIS imaging, bioluminescence (orthotopic GB126 tumors; Qstat 10 mg/kg alone, day 8 post Tx start): 42100000 photons/seconds and 58500000 photons/seconds and 585000000 photons/seconds and 200000000 photons/seconds and 458000000 photons/seconds and 884000000 photons/seconds and 49000000 photons/seconds and 19500000 photons/seconds and 581000000 photons/seconds and 107000000 photons/seconds
- IVIS imaging, bioluminescence (orthotopic GB126 tumors; Qstat 10 mg/kg alone, day 15 post Tx start): 5290000 photons/seconds and 888000000 photons/seconds and 5530000 photons/seconds and 4270000 photons/seconds and 7590000 photons/seconds and 19400000 photons/seconds
- IVIS imaging, bioluminescence (orthotopic GB126 tumors; Qstat 10 mg/kg alone, day 29 post Tx start): 1550000000 photons/seconds and 10600000000 photons/seconds and 15100000000 photons/seconds and 7070000000 photons/seconds and 3880000000 photons/seconds and 387000000 photons/seconds and 12600000000 photons/seconds and 413000000 photons/seconds and 4430000000 photons/seconds
